The NIST ThermoML archive (doi:10.1016/j.jct.2014.01.012)
Numbers after ± are expanded uncertainties.

What was measured:
[1] = refractive index (Na D-line) (dimensionless); settings: 101.33 kPa, Liquid
[2] = 101.33 kPa, Liquid
[3] = refractive index (Na D-line) (dimensionless); xn = mol fraction of the nth substance listed; settings: 101 kPa, Liquid, x2 = 0
[4] = xn = mol fraction of the nth substance listed; settings: 101 kPa, Liquid, x2 = 0

CCCCCCn1cc[n+](C)c1.F[P-](F)(F)(F)(F)F [1-hexyl-3-methylimidazolium hexafluorophosphate]
Settings | mass density, Vibrating tube method [kg/m3] | refractive index, Standard Abbe refractometry | speed of sound, Sing-around technique in a fixed-path interferometer [m/s]
[1], 293.15 K | – | 1.42064 ± 0.00072 | –
[1], 298.15 K | – | 1.41935 ± 0.00072 | –
[1], 303.15 K | – | 1.41806 ± 0.00072 | –
[1], 308.15 K | – | 1.41676 ± 0.00072 | –
[1], 313.15 K | – | 1.41547 ± 0.00072 | –
[1], 318.15 K | – | 1.41417 ± 0.00072 | –
[1], 323.15 K | – | 1.41288 ± 0.00072 | –
[2], 293.15 K | 1291.38 ± 4.2 | – | 1436.9 ± 3.1
[2], 298.15 K | 1287.34 ± 4.2 | – | 1423.5 ± 3.1
[2], 303.15 K | 1283.29 ± 4.1 | – | 1410.6 ± 3.1
[2], 308.15 K | 1279.4 ± 4.1 | – | 1398.2 ± 3.1
[2], 313.15 K | 1275.48 ± 4.1 | – | 1386 ± 3.1
[2], 318.15 K | 1271.56 ± 4 | – | 1374.2 ± 3.1
[2], 323.15 K | 1267.63 ± 4 | – | 1362.5 ± 3.1

CCCCCCCC[n+]1ccn(C)c1.F[P-](F)(F)(F)(F)F [1-octyl-3-methylimidazolium hexafluorophosphate]
Settings | mass density, [2] [kg/m3] | refractive index, [1] | speed of sound, [2] [m/s]
293.15 K | 1222.81 ± 4.2 | 1.42649 ± 0.0017 | 1388.2 ± 4.7
298.15 K | 1218.9 ± 4.2 | 1.42512 ± 0.0017 | 1373.4 ± 4.7
303.15 K | 1214.96 ± 4.1 | 1.42376 ± 0.0017 | 1359.3 ± 4.6
308.15 K | 1211.13 ± 4.1 | 1.4224 ± 0.0017 | 1345.8 ± 4.6
313.15 K | 1207.33 ± 4.1 | 1.42103 ± 0.0017 | 1332.7 ± 4.6
318.15 K | 1203.5 ± 4 | 1.41967 ± 0.0017 | 1320.1 ± 4.6
323.15 K | 1199.67 ± 4 | 1.41831 ± 0.0017 | 1307.7 ± 4.5

CCCCOC(C)=O [butyl ethanoate]
Settings | mass density, Vibrating tube method [kg/m3] | refractive index, Standard Abbe refractometry | speed of sound, Sing-around technique in a fixed-path interferometer [m/s]
[1], 293.15 K | – | 1.39428 ± 0.00042 | –
[1], 298.15 K | – | 1.39188 ± 0.00042 | –
[1], 303.15 K | – | 1.38948 ± 0.00042 | –
[1], 308.15 K | – | 1.3871 ± 0.00042 | –
[1], 313.15 K | – | 1.38469 ± 0.00042 | –
[1], 318.15 K | – | 1.38227 ± 0.00042 | –
[1], 323.15 K | – | 1.37984 ± 0.00042 | –
[2], 293.15 K | 881.134 ± 0.2 | – | 1211.3 ± 1.4
[2], 298.15 K | 876.004 ± 0.2 | – | 1190.5 ± 1.4
[2], 303.15 K | 870.855 ± 0.2 | – | 1169.8 ± 1.3
[2], 308.15 K | 865.685 ± 0.2 | – | 1149.2 ± 1.3
[2], 313.15 K | 860.492 ± 0.2 | – | 1128.8 ± 1.3
[2], 318.15 K | 855.275 ± 0.21 | – | 1108.5 ± 1.3
[2], 323.15 K | 850.032 ± 0.21 | – | 1088.3 ± 1.3

CCCCOC(C)=O [butyl ethanoate] + CCCCCCCC[n+]1ccn(C)c1.F[P-](F)(F)(F)(F)F
Settings | mass density, [4] [kg/m3] | refractive index, [3] | speed of sound, [4] [m/s]
293.15 K | 881.134 ± 0.5 | 1.39428 ± 0.0016 | 1211.3 ± 2.7
298.15 K | 876.004 ± 0.51 | 1.39188 ± 0.0016 | 1190.5 ± 2.7
303.15 K | 870.855 ± 0.52 | 1.38948 ± 0.0016 | 1169.8 ± 2.7
308.15 K | 865.685 ± 0.53 | 1.3871 ± 0.0016 | 1149.2 ± 2.6
313.15 K | 860.492 ± 0.53 | 1.38469 ± 0.0016 | 1128.8 ± 2.6
318.15 K | 855.275 ± 0.54 | 1.38227 ± 0.0016 | 1108.5 ± 2.6
323.15 K | 850.032 ± 0.55 | 1.37984 ± 0.0016 | 1088.3 ± 2.6

CCCCOC(C)=O [butyl ethanoate] + CCCCCCn1cc[n+](C)c1.F[P-](F)(F)(F)(F)F
Settings | mass density, Vibrating tube method [kg/m3] | refractive index, Standard Abbe refractometry | speed of sound, Sing-around technique in a fixed-path interferometer [m/s]
[3], 293.15 K | – | 1.39428 ± 0.00042 | –
[3], 298.15 K | – | 1.39188 ± 0.00042 | –
[3], 303.15 K | – | 1.38948 ± 0.00042 | –
[3], 308.15 K | – | 1.3871 ± 0.00042 | –
[3], 313.15 K | – | 1.38469 ± 0.00042 | –
[3], 318.15 K | – | 1.38227 ± 0.00042 | –
[3], 323.15 K | – | 1.37984 ± 0.00042 | –
[4], 293.15 K | 881.134 ± 0.2 | – | 1211.3 ± 1.4
[4], 298.15 K | 876.004 ± 0.2 | – | 1190.5 ± 1.4
[4], 303.15 K | 870.855 ± 0.2 | – | 1169.8 ± 1.3
[4], 308.15 K | 865.685 ± 0.2 | – | 1149.2 ± 1.3
[4], 313.15 K | 860.492 ± 0.2 | – | 1128.8 ± 1.3
[4], 318.15 K | 855.275 ± 0.2 | – | 1108.5 ± 1.3
[4], 323.15 K | 850.032 ± 0.21 | – | 1088.3 ± 1.3

CCOC(C)=O [ethyl acetate]
Settings | mass density, Vibrating tube method [kg/m3] | refractive index, Standard Abbe refractometry | speed of sound, Sing-around technique in a fixed-path interferometer [m/s]
[1], 293.15 K | – | 1.37237 ± 0.00041 | –
[1], 298.15 K | – | 1.36982 ± 0.00041 | –
[1], 303.15 K | – | 1.36727 ± 0.00041 | –
[1], 308.15 K | – | 1.36473 ± 0.00041 | –
[1], 313.15 K | – | 1.36219 ± 0.00041 | –
[1], 318.15 K | – | 1.35968 ± 0.00041 | –
[1], 323.15 K | – | 1.35732 ± 0.00041 | –
[2], 293.15 K | 900.573 ± 0.13 | – | 1162.4 ± 1.2
[2], 298.15 K | 894.473 ± 0.13 | – | 1139.8 ± 1.2
[2], 303.15 K | 888.347 ± 0.13 | – | 1117.2 ± 1.2
[2], 308.15 K | 882.172 ± 0.13 | – | 1094.7 ± 1.2
[2], 313.15 K | 875.951 ± 0.14 | – | 1072.4 ± 1.2
[2], 318.15 K | 869.681 ± 0.14 | – | 1050.1 ± 1.2
[2], 323.15 K | 863.358 ± 0.14 | – | 1028 ± 1.2

CCOC(C)=O [ethyl acetate] + CCCCCCCC[n+]1ccn(C)c1.F[P-](F)(F)(F)(F)F
Settings | mass density, [4] [kg/m3] | refractive index, [3] | speed of sound, [4] [m/s]
293.15 K | 900.573 ± 0.39 | 1.37237 ± 0.0016 | 1162.4 ± 2.5
298.15 K | 894.473 ± 0.41 | 1.36982 ± 0.0016 | 1139.8 ± 2.4
303.15 K | 888.347 ± 0.42 | 1.36727 ± 0.0016 | 1117.2 ± 2.4
308.15 K | 882.172 ± 0.43 | 1.36473 ± 0.0016 | 1094.7 ± 2.4
313.15 K | 875.951 ± 0.44 | 1.36219 ± 0.0016 | 1072.4 ± 2.4
318.15 K | 869.681 ± 0.45 | 1.35968 ± 0.0016 | 1050.1 ± 2.3
323.15 K | 863.358 ± 0.47 | 1.35732 ± 0.0016 | 1028 ± 2.3

CCOC(C)=O [ethyl acetate] + CCCCCCn1cc[n+](C)c1.F[P-](F)(F)(F)(F)F
[3]
Settings | refractive index
293.15 K | 1.37237 ± 0.0008
298.15 K | 1.36982 ± 0.0008
303.15 K | 1.36727 ± 0.0008
308.15 K | 1.36473 ± 0.0008
313.15 K | 1.36219 ± 0.0008
318.15 K | 1.35968 ± 0.0008
323.15 K | 1.35732 ± 0.0008

[4]
Settings | mass density, Vibrating tube method [kg/m3] | speed of sound, Sing-around technique in a fixed-path interferometer [m/s]
293.15 K | 900.573 ± 0.12 | 1162.4 ± 1.2
298.15 K | 894.473 ± 0.13 | 1139.8 ± 1.2
303.15 K | 888.347 ± 0.13 | 1117.2 ± 1.2
308.15 K | 882.172 ± 0.13 | 1094.7 ± 1.2
313.15 K | 875.951 ± 0.14 | 1072.4 ± 1.2
318.15 K | 869.681 ± 0.14 | 1050.1 ± 1.2
323.15 K | 863.358 ± 0.14 | 1028 ± 1.2
